Measurements: patent US20230183640A1, “METABOLIC INHIBITORS WITH EFFICACY FOR INHIBITING SULFIDE PRODUCTION IN HARSH ENVIRONMENTS” (MC (US) 3 LLC, priority 2020, published 2023)

How the values were obtained:
[1] = test system: Escherichia coli 8739; assay: Log (Growth) efficacy in aerobic conditions, non-SRB bacteria; assay type: cell-based
Procedure: 24-hour cultures were made of ATCC Escherichia coli 8739, Pseudomonas aeruginosa 15442, Enterobacter aerogenes 13048, and Klebsiella pneumoniae 13883. The cultures were prepared by taking a loop of a pure bacterial colony and inoculating 10 mL of TSB. These were grown for 24 hours at 30° C.
Following the 24-hour incubation, 600 microliters (μL) were taken from each culture and optical density (OD) was measured using a Thermofisher Spectronic 200 Spectrophotometer at 600 nm. Each culture was diluted to 0.05 OD600 in fresh Phosphate Buffered Saline (PBS). Using these cultures, two deep well plates were prepared. Edge wells were not used due to their inherent variability and evaporation of the media. Each of the components were added at their respective concentrations for a final volume of […] per well. In Table 8, the concentrations of the compound C1 used for the experiments are listed. Each experiment was done with at least three replicates for different treatments and non-treatment controls. Plates were then sealed with a titer-top and incubated in an incubator at 30° C.
(§1) Enumerations were done at each time point, which included 0 hour, 1 hour, 4 hours and 24 hours. Enumeration plates were made to determine the log growth in each dosed sample. For this process, enumeration plates were prepared by adding 180 μL fresh TSB. 20 μL was taken from each well of the challenge plates and transferred to the enumeration plates using a 20-200 μL multichannel pipette. Enumeration plates were mixed three times using the multichannel pipette and serial diluted down the plate tenfold (20 μL into 180 μL). This serial dilution process was repeated for all challenge plate rows giving a total of 6 enumeration plates. These enumeration plates were read after 24-hours and by counting the number of turbid wells in a row.

[2] = test system: Desulfovibrio alaskensis 14563; assay: H2S and Log (Growth) efficacy against SRB, 96-Well Plate Method; assay type: cell-based
Procedure: A lyophilized Desulfovibrio alaskensis 14563, Desulfovibrio longus 51456, and Desulfovibrio gabonensis 700201 pure cultures received from ATCC were resuspended individually in 500 ul of MB 1250. Aseptically, the content was transferred to a 5-mL tube of MB1250 medium. The cultures were incubated in an anaerobic chamber at 30° C. for 72 hrs. Subsequently, an individual stock culture with a final concentration of 25% glycerol were prepared by adding equal volumes of culture and 50% glycerol. 1 ml of the cultures were then transferred to 2-ml cryogenic vials and stored at −80° C. The purity of the stock cultures was evaluated through PCR, by amplifying the 16S rDNA region, and thus, it was verified that the original ATCC sample was a pure culture. 48-hour cultures of ATCC Desulfovibrio alaskensis 14563, Desulfovibrio longus 51456, and Desulfovibrio gabonensis 700201 were prepared in an anaerobic chamber. Each culture was prepared as a 1:10 culture by taking 1 milliliter (mL) of a pure culture and inoculating 9 milliliters (mL) of fresh MB1250 media. The Desulfovibrio alaskensis 14563 and Desulfovibrio gabonensis 700201 were all grown at 30° C. and the Desulfovibrio longus 51456 culture was grown at 35° C.
After the 48-hour incubation, 600 microliters (μL) were taken from each culture and optical density (OD) was measured using a Thermofisher Spectronic 200 Spectrophotometer at 600 nm. Each culture was diluted to 0.05 OD600 in fresh MB1250 media and added to the 96 well plates. Edge wells were not used due to their inherent variability and evaporation of the media. Each of the components were added at their respective concentrations for a final volume of 500 μL per well. In Table 3, 6 and 7, the concentrations of the compound used for the experiments are listed. Each experiment was done with at least three replicates for different treatments and non-treatment controls. […] Plates were then sealed with a titer-top and placed into anaerobic boxes and incubated in an anaerobic incubator at 30° C.
as §1, with “At” for “Enumerations were done at”, “sulfide samples were taken,” for “which included 0 hour, 1 hour, 4 hours”, “enumeration plates were made.” for “24 hours.”, “media MB1250 containing 0.01 wt % ferrous ammonium sulfate.” for “TSB.”, “plates.” for “plates. These enumeration plates were read after 24-hours and by counting the number of turbid wells in a row.”
After 7 days these enumeration plates were read. The ferrous ammonium sulfate in each plate would be converted to iron sulfide, changing wells with SRB growth from clear to black. By counting the number of black wells in a row, the log growth from the original well in the challenge plate can be determined.
To determine hydrogen sulfide production in each sample, sulfide samples were also taken from each challenge plate. From each well, 9 μL were taken and added to 60 μL of 2% zinc acetate with 0.02% acetic acid. Then, 180 μL of milliQ water was added. 60 μL of stock solution 1 containing 64% sulfuric acid, <1% Dimethyl-4-phenylenediamine (DMPD), water to 100% was added to each well on the plates. This was followed by 3 μL of stock solution 3 containing 50% Iron (III) chloride. All chemicals are ordered from Fisher Scientific and used as received. These were mixed three times and read after 15 minutes. The plates were read at 670 nm using a Biotek microplate reader. Absorbance readings were converted to mM using a standard curve and this was converted to parts per million using the molar mass of sulfur. The standard curves were made using sodium sulfide nonahydrate solutions to give final solutions of 0, 0.125, 0.25 0.5, 1.0, and 1.5 ppm.

O=C(CN1C(=O)c2cccc3cccc(c23)C1=O)NO [C1]
Log (Growth) ([1]; 0 hours, 6.25 PPM): 7.000
Log (Growth) ([1]; 0 hours, 12.5 PPM): 6.667
Log (Growth) ([1]; 0 hours, 25 PPM): 7.000
Log (Growth) ([1]; 0 hours, 50 PPM): 7.333
Log (Growth) ([1]; 0 hours, 100 PPM): 7.000
Log (Growth) ([1]; 0 hours, 200 PPM): 7.000
Log (Growth) ([1]; 1 hour, 6.25 PPM): 7.000
Log (Growth) ([1]; 1 hour, 12.5 PPM): 8.000
Log (Growth) ([1]; 1 hour, 25 PPM): 7.333
Log (Growth) ([1]; 1 hour, 50 PPM): 6.333
Log (Growth) ([1]; 1 hour, 100 PPM): 6.333
Log (Growth) ([1]; 1 hour, 200 PPM): 6.333
Log (Growth) ([1]; 4 hours, 6.25 PPM): 7.000
Log (Growth) ([1]; 4 hours, 12.5 PPM): 7.333
Log (Growth) ([1]; 4 hours, 25 PPM): 7.000
Log (Growth) ([1]; 4 hours, 50 PPM): 6.667
Log (Growth) ([1]; 4 hours, 100 PPM): 7.000
Log (Growth) ([1]; 4 hours, 200 PPM): 6.667
Log (Growth) ([1]; 24 hours, 6.25 PPM): 6.333
Log (Growth) ([1]; 24 hours, 12.5 PPM): 7.333
Log (Growth) ([1]; 24 hours, 25 PPM): 6.667
Log (Growth) ([1]; 24 hours, 50 PPM): 7.000
Log (Growth) ([1]; 24 hours, 100 PPM): 6.667
Log (Growth) ([1]; 24 hours, 200 PPM): 7.000
H2S ([2]; 3 days, 6.4 PPM): 15.5 PPM
Log (Growth) ([2]; 3 days, 6.4 PPM): 2.7
H2S ([2]; 3 days, 12.8 PPM): 13.5 PPM
Log (Growth) ([2]; 3 days, 12.8 PPM): 2.0
H2S ([2]; 3 days, 25.6 PPM): 15.1 PPM
Log (Growth) ([2]; 3 days, 25.6 PPM): 0.0
H2S ([2]; 3 days, 51.3 PPM): 15.4 PPM
Log (Growth) ([2]; 3 days, 51.3 PPM): 0.0
H2S ([2]; 3 days, 102.5 PPM): 13.6 PPM
Log (Growth) ([2]; 3 days, 102.5 PPM): 0.3
H2S ([2]; 3 days, 205.0 PPM): 12.7 PPM
Log (Growth) ([2]; 3 days, 205.0 PPM): 0.3
H2S ([2]; 6 days, 6.4 PPM): 18.1 PPM
Log (Growth) ([2]; 6 days, 6.4 PPM): 3.3
H2S ([2]; 6 days, 12.8 PPM): 23.5 PPM
Log (Growth) ([2]; 6 days, 12.8 PPM): 2.7
H2S ([2]; 6 days, 25.6 PPM): 8.8 PPM
Log (Growth) ([2]; 6 days, 25.6 PPM): 1.0
H2S ([2]; 6 days, 51.3 PPM): 8.3 PPM
Log (Growth) ([2]; 6 days, 51.3 PPM): 0.0
H2S ([2]; 6 days, 102.5 PPM): 8.7 PPM
Log (Growth) ([2]; 6 days, 102.5 PPM): 0.0
H2S ([2]; 6 days, 205.0 PPM): 9.0 PPM
Log (Growth) ([2]; 6 days, 205.0 PPM): 0.0
